Results: ChEMBL document CHEMBL3046025, “Fungitoxic Properties of N-Phenylformamidoximes in Control of Benzimidazole-Resistant Isolates of Fungi” (1992)
Calls of active or inactive are those of the source. The calls are words filed in the database; no cut-off is given here.

How the values were obtained:
Cercospora beticola [1] = assay: Antifungal activity against Benzimidalzole-sensitive Cercospora beticola isolate 18-1 at 0.001 to 1000 ppm after 14 days by agar dilution method; type: functional, organism-based
Cercospora beticola [2] = assay: Ratio of EC50 for Benzimidalzole-resistant Cercospora beticola isolate 6-13 to EC50 for Benzimidalzole-resistant Cercospora beticola isole Cb-19; type: functional
Botrytis cinerea [3] = assay: Antifungal activity against Benzimidalzole-resistant Botryotinia fuckeliana isolate Bc-44 infected kidney bean leaves at 200 ppm applied as soil drench 3 days prior to inoculation; type: functional
Botrytis cinerea [4] = assay: Antifungal activity against Benzimidalzole-resistant Botryotinia fuckeliana isolate Bc-44 infected kidney bean leaves at 50 ppm 24 hr post-infection measured after 3 days; type: functional
Cercospora beticola [5] = assay: Antifungal activity against Benzimidalzole-sensitive Cercospora beticola isolate 24-3 at 0.001 to 1000 ppm after 14 days by agar dilution method; type: functional, organism-based
Cercospora beticola [6] = assay: Antifungal activity against Benzimidalzole-resistant Cercospora beticola isolate 1-3 at 0.001 to 1000 ppm after 14 days by agar dilution method; type: functional, organism-based
Cercospora beticola [7] = assay: Ratio of EC50 for Benzimidalzole-sensitive Cercospora beticola isolate 22-5 to EC50 for Benzimidalzole-resistant Cercospora beticola isolate 18-2; type: functional
Botrytis cinerea [8] = assay: Ratio of EC50 for Benzimidalzole-sensitive Botryotinia fuckeliana isolate Bc-9 to EC50 for Benzimidalzole-resistant Botryotinia fuckeliana isolate Bc-44; type: functional
Cercospora beticola [9] = assay: Ratio of EC50 for Benzimidalzole-sensitive Cercospora beticola isolate 18-1 to EC50 for Benzimidalzole-resistant Cercospora beticola isole 28-8; type: functional
Cercospora beticola [10] = assay: Antifungal activity against Benzimidalzole-resistant Cercospora beticola isolate Cb-19 infected in sugar beet seedlings at 12.5 ppm treated as foliar application 7 days prior to inoculation; type: functional
Botrytis cinerea [11] = assay: Antifungal activity against Benzimidalzole-resistant Botryotinia fuckeliana isolate Bc-44 infected kidney bean leaves at 200 ppm treated as foliar application followed by incubation for 7 days in green house condition; type: functional
Cercospora beticola [12] = assay: Antifungal activity against Benzimidalzole-resistant Cercospora beticola isolate Cb-19 infected in compound-treated sugar beet seedlings at 200 ppm after 12 days; type: functional
Botrytis cinerea [13] = assay: Ratio of EC50 for Benzimidalzole-resistant Botryotinia fuckeliana isolate Bc-20 to EC50 for Benzimidalzole-resistant Botryotinia fuckeliana isolate Bc-31; type: functional
Cercospora beticola [14] = assay: Ratio of EC50 for Benzimidalzole-resistant Cercospora beticola isolate 6-13 to EC50 for Benzimidalzole-resistant Cercospora beticola isolate 49-4; type: functional
Botrytis cinerea [15] = assay: Antifungal activity against Benzimidalzole-resistant Botryotinia fuckeliana isolate Bc-44 infected kidney bean leaves at 50 ppm applied as soil drench 3 days prior to inoculation; type: functional
Botrytis cinerea [16] = assay: Ratio of EC50 for Benzimidalzole-sensitive Botryotinia fuckeliana isolate Bc-3 to EC50 for Benzimidalzole-resistant Botryotinia fuckeliana isolate Bc-44; type: functional
Cercospora beticola [17] = assay: Ratio of EC50 for Benzimidalzole-sensitive Cercospora beticola isolate 18-1 to EC50 for Benzimidalzole-resistant Cercospora beticola isole Cb-19; type: functional
Cercospora beticola [18] = assay: Ratio of EC50 for Benzimidalzole-sensitive Cercospora beticola isolate 22-5 to EC50 for Benzimidalzole-resistant Cercospora beticola isolate 1-3; type: functional
Cercospora beticola [19] = assay: Antifungal activity against Benzimidalzole-resistant Cercospora beticola isolate Cb-19 infected in sugar beet seedlings at 50 ppm treated as foliar application 7 days prior to inoculation; type: functional
Cercospora beticola [20] = assay: Ratio of EC50 for Benzimidalzole-resistant Cercospora beticola isolate 18-11 to EC50 for Benzimidalzole-resistant Cercospora beticola isolate 1-3; type: functional
Cercospora beticola [21] = assay: Antifungal activity against Benzimidalzole-sensitive Cercospora beticola isolate 22-5 at 0.001 to 1000 ppm after 14 days by agar dilution method; type: functional, organism-based
Botrytis cinerea [22] = assay: Antifungal activity against Benzimidalzole-resistant Botryotinia fuckeliana isolate Bc-44 infected kidney bean leaves at 50 ppm treated as foliar application followed by incubation for 7 days in green house condition; type: functional
Botrytis cinerea [23] = assay: Antifungal activity against Benzimidalzole-resistant Botryotinia fuckeliana isolate Bc-44 at 0.001 to 1000 ppm after 3 days by agar dilution method; type: functional, organism-based
Cercospora beticola [24] = assay: Antifungal activity against Benzimidalzole-resistant Cercospora beticola isolate Cb-19 infected in compound-treated sugar beet seedlings at 50 ppm after 12 days; type: functional
Botrytis cinerea [25] = assay: Antifungal activity against Benzimidalzole-resistant Botryotinia fuckeliana isolate Bc-44 infected compound-treated kidney bean leaves at 200 ppm after 4 days; type: functional
Cercospora beticola [26] = assay: Antifungal activity against Benzimidalzole-resistant Cercospora beticola isolate Cb-19 infected in sugar beet seedlings at 3.1 ppm 24 hr-post inoculation; type: functional
Botrytis cinerea [27] = assay: Antifungal activity against Benzimidalzole-sensitive Botryotinia fuckeliana isolate Bc-9 infected compound-treated kidney bean leaves at 200 ppm after 4 days; type: functional
Botrytis cinerea [28] = assay: Ratio of EC50 for Benzimidalzole-resistant Botryotinia fuckeliana isolate Bc-40 to EC50 for Benzimidalzole-resistant Botryotinia fuckeliana isolate Bc-44; type: functional
Cercospora beticola [29] = assay: Antifungal activity against Benzimidalzole-sensitive Cercospora beticola isolate 18-1 infected in compound-treated sugar beet seedlings at 200 ppm after 12 days; type: functional
Cercospora beticola [30] = assay: Ratio of EC50 for Benzimidalzole-resistant Cercospora beticola isolate 6-13 to EC50 for Benzimidalzole-resistant Cercospora beticola isolate 18-2; type: functional
Cercospora beticola [31] = assay: Ratio of EC50 for Benzimidalzole-resistant Cercospora beticola isolate 20-2 to EC50 for Benzimidalzole-resistant Cercospora beticola isolate 18-2; type: functional
Cercospora beticola [32] = assay: Antifungal activity against Benzimidalzole-resistant Cercospora beticola isolate Cb-19 infected in sugar beet seedlings at 200 ppm treated as foliar application 7 days prior to inoculation; type: functional
Botrytis cinerea [33] = assay: Antifungal activity against Benzimidalzole-resistant Botryotinia fuckeliana isolate Bc-44 infected compound-treated kidney bean leaves at 50 ppm after 4 days; type: functional
Cercospora beticola [34] = assay: Ratio of EC50 for Benzimidalzole-resistant Cercospora beticola isolate 18-11 to EC50 for Benzimidalzole-resistant Cercospora beticola isole Cb-19; type: functional
Cercospora beticola [35] = assay: Antifungal activity against Benzimidalzole-resistant Cercospora beticola isolate Cb-19 infected in sugar beet seedlings at 12.5 ppm 24 hr-post inoculation; type: functional
Cercospora beticola [36] = assay: Ratio of EC50 for Benzimidalzole-sensitive Cercospora beticola isolate 24-3 to EC50 for Benzimidalzole-resistant Cercospora beticola isole Cb-19; type: functional
Cercospora beticola [37] = assay: Antifungal activity against Benzimidalzole-resistant Cercospora beticola isolate 18-2 infected in compound-treated sugar beet seedlings at 12.5 ppm after 12 days; type: functional
Cercospora beticola [38] = assay: Ratio of EC50 for Benzimidalzole-sensitive Cercospora beticola isolate 24-3 to EC50 for Benzimidalzole-resistant Cercospora beticola isolate 18-2; type: functional
Cercospora beticola [39] = assay: Ratio of EC50 for Benzimidalzole-resistant Cercospora beticola isolate 18-11 to EC50 for Benzimidalzole-resistant Cercospora beticola isolate 49-4; type: functional
Botrytis cinerea [40] = assay: Antifungal activity against Benzimidalzole-sensitive Botryotinia fuckeliana isolate Bc-9 infected compound-treated kidney bean leaves at 50 ppm after 4 days; type: functional
Cercospora beticola [41] = assay: Antifungal activity against Benzimidalzole-resistant Cercospora beticola isolate 18-11 at 0.001 to 1000 ppm after 14 days by agar dilution method; type: functional, organism-based
Cercospora beticola [42] = assay: Antifungal activity against Benzimidalzole-resistant Cercospora beticola isolate Cb-19 infected in sugar beet seedlings at 200 ppm 24 hr-post inoculation; type: functional
Cercospora beticola [43] = assay: Antifungal activity against Benzimidalzole-resistant Cercospora beticola isolate 28-8 at 0.001 to 1000 ppm after 14 days by agar dilution method; type: functional, organism-based

## C#CCOc1c(Cl)cc(N/C=N/OC)cc1Cl
Cercospora beticola [1]
  Activity: inactive
Cercospora beticola [2]
  Ratio EC50: > 1000
Botrytis cinerea [3]
  Activity: 7%
Botrytis cinerea [4]
  Activity: 100%
Cercospora beticola [5]
  Activity: inactive
Cercospora beticola [6]
  Activity: Active
Cercospora beticola [7]
  Ratio EC50: > 1000
Botrytis cinerea [8]
  Ratio EC50: > 1000
Cercospora beticola [9]
  Ratio EC50: > 1000
Cercospora beticola [10]
  Activity: 93%
Botrytis cinerea [11]
  Activity: 100%
Cercospora beticola [12]
  Activity: 100%
Botrytis cinerea [13]
  Ratio EC50: > 1000
Cercospora beticola [14]
  Ratio EC50: > 1000
Botrytis cinerea [15]
  Activity: 0%
Botrytis cinerea [16]
  Ratio EC50: > 1000
Cercospora beticola [17]
  Ratio EC50: > 1000
Cercospora beticola [18]
  Ratio EC50: > 1000
Cercospora beticola [19]
  Activity: 99%
Cercospora beticola [20]
  Ratio EC50: > 1000
Cercospora beticola [21]
  Activity: inactive
Botrytis cinerea [22]
  Activity: 100%
Botrytis cinerea [23]
  Activity: Active
Cercospora beticola [24]
  Activity: 100%
Botrytis cinerea [25]
  Activity: 100%
Cercospora beticola [26]
  Activity: 44%
Botrytis cinerea [27]
  Activity: 8%
Botrytis cinerea [28]
  Ratio EC50: > 1000
Cercospora beticola [29]
  Activity: 0%
Cercospora beticola [30]
  Ratio EC50: > 1000
Cercospora beticola [31]
  Ratio EC50: > 1000
Cercospora beticola [32]
  Activity: 100%
Botrytis cinerea [33]
  Activity: 100%
Cercospora beticola [34]
  Ratio EC50: > 1000
Cercospora beticola [35]
  Activity: 96%
Cercospora beticola [36]
  Ratio EC50: > 1000
Cercospora beticola [37]
  Activity: 94%
Cercospora beticola [38]
  Ratio EC50: > 1000
Cercospora beticola [39]
  Ratio EC50: > 1000
Botrytis cinerea [40]
  Activity: 5%
Cercospora beticola [41]
  Activity: inactive
Cercospora beticola [42]
  Activity: 100%
Cercospora beticola [43]
  Activity: Active

## C#CCOc1cc(N/C=N/OC)cc(Cl)c1OCC#C
Cercospora beticola [1]
  Activity: inactive
Cercospora beticola [2]
  Ratio EC50: > 1000
Botrytis cinerea [3]
  Activity: 77%
Botrytis cinerea [4]
  Activity: 100%
Cercospora beticola [5]
  Activity: inactive
Cercospora beticola [6]
  Activity: Active
Cercospora beticola [7]
  Ratio EC50: > 1000
Botrytis cinerea [8]
  Ratio EC50: > 1000
Cercospora beticola [9]
  Ratio EC50: > 1000
Cercospora beticola [10]
  Activity: 80%
Botrytis cinerea [11]
  Activity: 100%
Cercospora beticola [12]
  Activity: 100%
Botrytis cinerea [13]
  Ratio EC50: > 1000
Cercospora beticola [14]
  Ratio EC50: > 1000
Botrytis cinerea [15]
  Activity: 6%
Botrytis cinerea [16]
  Ratio EC50: > 1000
Cercospora beticola [17]
  Ratio EC50: > 1000
Cercospora beticola [18]
  Ratio EC50: > 1000
Cercospora beticola [19]
  Activity: 100%
Cercospora beticola [20]
  Ratio EC50: > 1000
Cercospora beticola [21]
  Activity: inactive
Botrytis cinerea [22]
  Activity: 90%
Botrytis cinerea [23]
  Activity: Active
Cercospora beticola [24]
  Activity: 100%
Botrytis cinerea [25]
  Activity: 100%
Cercospora beticola [26]
  Activity: 54%
Botrytis cinerea [27]
  Activity: 7%
Botrytis cinerea [28]
  Ratio EC50: > 1000
Cercospora beticola [29]
  Activity: 0%
Cercospora beticola [30]
  Ratio EC50: > 1000
Cercospora beticola [31]
  Ratio EC50: > 1000
Cercospora beticola [32]
  Activity: 100%
Botrytis cinerea [33]
  Activity: 100%
Cercospora beticola [34]
  Ratio EC50: > 1000
Cercospora beticola [35]
  Activity: 91%
Cercospora beticola [36]
  Ratio EC50: > 1000
Cercospora beticola [37]
  Activity: 100%
Cercospora beticola [38]
  Ratio EC50: > 1000
Cercospora beticola [39]
  Ratio EC50: > 1000
Botrytis cinerea [40]
  Activity: 0%
Cercospora beticola [41]
  Activity: inactive
Cercospora beticola [42]
  Activity: 100%
Cercospora beticola [43]
  Activity: Active
